Measurements taken from PubChem BioAssay (NCI).
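At the GI50, growth is halved. The concentration for full growth arrest is given as TGI.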

What was measured:
Test in all cases: growth of human tumour cells (NCI), 384-well format
RXF 393 renal = tested on: RXF 393 renal
COLO 205 colon = tested on: COLO 205 colon
HOP-62 NSCLC = tested on: HOP-62 NSCLC
BT-549 breast = tested on: BT-549 breast
SNB-75 CNS = tested on: SNB-75 CNS
NCI-H322M lung = tested on: NCI-H322M lung
SF-268 CNS = tested on: SF-268 CNS
PC-3 prostate = tested on: PC-3 prostate
NCI-H226 lung = tested on: NCI-H226 lung
IGROV1 ovarian = tested on: IGROV1 ovarian
HS 578T breast = tested on: HS 578T breast
HCT-116 colon = tested on: HCT-116 colon
CAKI-1 renal = tested on: CAKI-1 renal
SN12C renal = tested on: SN12C renal
A498 renal = tested on: A498 renal
LOX IMVI melanoma = tested on: LOX IMVI melanoma
KM12 colon = tested on: KM12 colon
SW-620 colon = tested on: SW-620 colon
OVCAR-3 ovarian = tested on: OVCAR-3 ovarian
UACC-257 melanoma = tested on: UACC-257 melanoma
MDA-MB-231 breast = tested on: MDA-MB-231 breast
MDA-MB-468 breast = tested on: MDA-MB-468 breast
NCI/ADR-RES ovarian = tested on: NCI/ADR-RES ovarian
SF-539 CNS = tested on: SF-539 CNS
SK-MEL-28 melanoma = tested on: SK-MEL-28 melanoma
OVCAR-8 ovarian = tested on: OVCAR-8 ovarian
M14 melanoma = tested on: M14 melanoma
A549 NSCLC = tested on: A549 NSCLC
K-562 leukemia = tested on: K-562 leukemia
HOP-92 NSCLC = tested on: HOP-92 NSCLC
SR leukemia = tested on: SR leukemia
SNB-19 CNS = tested on: SNB-19 CNS
SK-OV-3 ovarian = tested on: SK-OV-3 ovarian
HL-60(TB) leukemia = tested on: HL-60(TB) leukemia
UO-31 renal = tested on: UO-31 renal
EKVX NSCLC = tested on: EKVX NSCLC
OVCAR-4 ovarian = tested on: OVCAR-4 ovarian
MALME-3M melanoma = tested on: MALME-3M melanoma
HCT-15 colon = tested on: HCT-15 colon
NCI-H23 lung = tested on: NCI-H23 lung
CCRF-CEM leukemia = tested on: CCRF-CEM leukemia
HT29 colon = tested on: HT29 colon
SF-295 CNS = tested on: SF-295 CNS
ACHN renal = tested on: ACHN renal
TK-10 renal = tested on: TK-10 renal
MOLT-4 leukemia = tested on: MOLT-4 leukemia
HCC-2998 colon = tested on: HCC-2998 colon
DU-145 prostate = tested on: DU-145 prostate

With `O=C(O)C1(Cc2cccc(Nc3nccs3)n2)CCC(Oc2cccc(Cl)c2F)CC1` (stereo unspecified) as the compound, how does the GI50 (RXF 393 renal) read?
The GI50 was 0.358 µM.

And the TGI (RXF 393 renal)?
The TGI was 12.3 µM.

What about the GI50 (COLO 205 colon) of the same compound?
Its GI50 is 0.609 µM.

What about the TGI (COLO 205 colon) of the same compound?
Its TGI is 21.7 µM.

And the GI50 (HOP-62 NSCLC)?
Its GI50 is 1.89 µM.

What about the TGI (HOP-62 NSCLC) of the same compound?
Its TGI is 20.2 µM.

What about the GI50 (BT-549 breast) of the same compound?
Its GI50 is 0.573 µM.

And the TGI (BT-549 breast)?
Its TGI is 22.3 µM.

And the GI50 (SNB-75 CNS)?
The GI50 was 0.972 µM.

What about the TGI (SNB-75 CNS) of the same compound?
The TGI was 28.5 µM.

What about the GI50 (NCI-H322M lung) of the same compound?
Its GI50 is 16.5 µM.

What about the TGI (NCI-H322M lung) of the same compound?
Its TGI is 32.6 µM.

What about the GI50 (SF-268 CNS) of the same compound?
Its GI50 is 0.3 µM.

What about the TGI (SF-268 CNS) of the same compound?
The TGI was 28 µM.

What about the GI50 (PC-3 prostate) of the same compound?
Its GI50 is 11.7 µM.

What about the TGI (PC-3 prostate) of the same compound?
Its TGI is 24.7 µM.

And the GI50 (NCI-H226 lung)?
Its GI50 is 3.06 µM.

And the TGI (NCI-H226 lung)?
The TGI was 20.1 µM.

What about the GI50 (IGROV1 ovarian) of the same compound?
Its GI50 is 13.4 µM.

And the TGI (IGROV1 ovarian)?
Its TGI is 27.6 µM.

And the GI50 (HS 578T breast)?
The GI50 was 0.0962 µM.

What about the TGI (HS 578T breast) of the same compound?
The TGI was 17.9 µM.

And the GI50 (HCT-116 colon)?
Its GI50 is 0.0796 µM.

And the TGI (HCT-116 colon)?
The TGI was 17.6 µM.

What about the GI50 (CAKI-1 renal) of the same compound?
The GI50 was 11.3 µM.

What about the TGI (CAKI-1 renal) of the same compound?
Its TGI is 25.5 µM.

And the GI50 (SN12C renal)?
Its GI50 is 11.1 µM.

And the TGI (SN12C renal)?
Its TGI is 26.4 µM.

And the GI50 (A498 renal)?
The GI50 was 11.6 µM.

And the TGI (A498 renal)?
Its TGI is 25 µM.

What about the GI50 (LOX IMVI melanoma) of the same compound?
Its GI50 is 10.3 µM.

And the TGI (LOX IMVI melanoma)?
Its TGI is 22.1 µM.

And the GI50 (KM12 colon)?
Its GI50 is 0.124 µM.

What about the TGI (KM12 colon) of the same compound?
Its TGI is 16.1 µM.

And the GI50 (SW-620 colon)?
Its GI50 is 1.2 µM.

And the TGI (SW-620 colon)?
Its TGI is 19.9 µM.

What about the GI50 (OVCAR-3 ovarian) of the same compound?
Its GI50 is 0.41 µM.

And the TGI (OVCAR-3 ovarian)?
The TGI was 18.2 µM.

What about the GI50 (UACC-257 melanoma) of the same compound?
The GI50 was 19.6 µM.

And the TGI (UACC-257 melanoma)?
Its TGI is 54.5 µM.

What about the GI50 (MDA-MB-231 breast) of the same compound?
The GI50 was 11.7 µM.

And the TGI (MDA-MB-231 breast)?
The TGI was 31.3 µM.

What about the GI50 (MDA-MB-468 breast) of the same compound?
Its GI50 is 0.122 µM.

And the TGI (MDA-MB-468 breast)?
Its TGI is 0.288 µM.

And the GI50 (NCI/ADR-RES ovarian)?
Its GI50 is 0.329 µM.

What about the TGI (NCI/ADR-RES ovarian) of the same compound?
Its TGI is 13.3 µM.

What about the GI50 (SF-539 CNS) of the same compound?
Its GI50 is 3.09 µM.

What about the TGI (SF-539 CNS) of the same compound?
The TGI was 20.6 µM.

And the GI50 (SK-MEL-28 melanoma)?
The GI50 was 15.7 µM.

And the TGI (SK-MEL-28 melanoma)?
The TGI was 61.1 µM.

What about the GI50 (OVCAR-8 ovarian) of the same compound?
Its GI50 is 0.46 µM.

And the TGI (OVCAR-8 ovarian)?
Its TGI is 20.3 µM.

What about the GI50 (M14 melanoma) of the same compound?
The GI50 was 0.381 µM.

And the TGI (M14 melanoma)?
The TGI was 21.4 µM.

What about the GI50 (A549 NSCLC) of the same compound?
The GI50 was 8.56 µM.

And the TGI (A549 NSCLC)?
The TGI was 24.2 µM.

And the GI50 (K-562 leukemia)?
The GI50 was 0.313 µM.

What about the TGI (K-562 leukemia) of the same compound?
Its TGI is 1.27 µM.

And the GI50 (HOP-92 NSCLC)?
The GI50 was 10.4 µM.

And the TGI (HOP-92 NSCLC)?
The TGI was 22.9 µM.

What about the GI50 (SR leukemia) of the same compound?
The GI50 was 0.0417 µM.

What about the TGI (SR leukemia) of the same compound?
Its TGI is 0.105 µM.

And the GI50 (SNB-19 CNS)?
Its GI50 is 12.1 µM.

And the TGI (SNB-19 CNS)?
The TGI was 29.6 µM.

And the GI50 (SK-OV-3 ovarian)?
The GI50 was 11.5 µM.

And the TGI (SK-OV-3 ovarian)?
Its TGI is 26.3 µM.

What about the GI50 (HL-60(TB) leukemia) of the same compound?
The GI50 was 0.397 µM.

And the TGI (HL-60(TB) leukemia)?
Its TGI is 1.53 µM.

What about the GI50 (UO-31 renal) of the same compound?
The GI50 was 14 µM.

What about the TGI (UO-31 renal) of the same compound?
Its TGI is 27.7 µM.

What about the GI50 (EKVX NSCLC) of the same compound?
Its GI50 is 10.1 µM.

What about the TGI (EKVX NSCLC) of the same compound?
Its TGI is 24.5 µM.

And the GI50 (OVCAR-4 ovarian)?
Its GI50 is 16.6 µM.

What about the TGI (OVCAR-4 ovarian) of the same compound?
The TGI was 58.5 µM.

And the GI50 (MALME-3M melanoma)?
The GI50 was 18.2 µM.

And the TGI (MALME-3M melanoma)?
The TGI was 37.4 µM.

What about the GI50 (HCT-15 colon) of the same compound?
The GI50 was 5.24 µM.

And the TGI (HCT-15 colon)?
Its TGI is 21.3 µM.

And the GI50 (NCI-H23 lung)?
Its GI50 is 0.562 µM.

What about the TGI (NCI-H23 lung) of the same compound?
The TGI was 20.8 µM.

What about the GI50 (CCRF-CEM leukemia) of the same compound?
The GI50 was 0.249 µM.

And the TGI (CCRF-CEM leukemia)?
The TGI was 1.1 µM.

And the GI50 (HT29 colon)?
The GI50 was 4.21 µM.

What about the TGI (HT29 colon) of the same compound?
Its TGI is 17.1 µM.

What about the GI50 (SF-295 CNS) of the same compound?
Its GI50 is 2.02 µM.

And the TGI (SF-295 CNS)?
The TGI was 23.4 µM.

What about the GI50 (ACHN renal) of the same compound?
The GI50 was 14.6 µM.

What about the TGI (ACHN renal) of the same compound?
The TGI was 48.9 µM.

What about the GI50 (TK-10 renal) of the same compound?
Its GI50 is 13.3 µM.

And the TGI (TK-10 renal)?
The TGI was 31.3 µM.

And the GI50 (MOLT-4 leukemia)?
Its GI50 is 0.0886 µM.

And the TGI (MOLT-4 leukemia)?
The TGI was 1.05 µM.

And the GI50 (HCC-2998 colon)?
Its GI50 is 16 µM.

And the TGI (HCC-2998 colon)?
Its TGI is 29.7 µM.

What about the GI50 (DU-145 prostate) of the same compound?
Its GI50 is 10.7 µM.

And the TGI (DU-145 prostate)?
Its TGI is 26.2 µM.
